What was measured:
Assay type in all cases: physicochemical
[1] = Particle size analysis with Beckman Device (laser diffraction); conditions: Fraunhofer optical model
Description: Particle size may be determined in any suitable manner. For example, a Beckman Coulter LS 13 320 Laser Diffraction Particle Size Analyzer (the “Beckman Device”) may be used to determine particle size. As described above, particle size may be represented by various metrics, for example, through an X50 particle size, and/or X90 particle size, or similar descriptions of particle size.
For the purposes of this Example, a particle size analysis is conducted by using the Beckman Device. A sample API comprising micronized progesterone in accordance with various embodiments is provided for analysis.
Approximately 0.01 g of a sample API in accordance with various embodiments was combined with Coulter 1B and 10 mL of deionized water. Sonication was performed for 15 seconds. The Beckman Device, equipped with a ULM, performed analysis for 90 seconds. The Beckman Device was configured to use the Fraunhofer optical model. […] The Beckman Device also yielded that the mean particle size is 4.975 μm, the median particle size is 4.279 μm, the mode particle size is 6.453 μm, and the standard deviation is 3.956 μm.
A formulation sample having approximately 200 mg of micronized progesterone and 2 mg of estradiol was dispersed with oil. The Beckman Device, equipped with a MLM, performed analysis for 60 seconds. The Beckman Device was configured to use the Fraunhofer optical model.

[2] = Progesterone solubility in solvents
Text: . Thus, MIGLYOL® may be used in embodiments comprising a suspension of progesterone, though MIGLYOL®, standing alone, is not desirable for use in embodiments having fully solubilized progesterone and/or estradiol.

[3] = Estradiol solutions after addition of 7% water
Text: In addition to determining physical stability of the estradiol solutions over time, it is necessary to determine if the fill material will be stable during the encapsulation process. One way to test these preparations is with the addition of water to the fill mass. […].
All CAPMUL® PG8 containing formulations turned hazy on the addition of water.

CC(=O)[C@H]1CC[C@H]2[C@@H]3CCC4=CC(=O)CC[C@]4(C)[C@H]3CC[C@]12C [Progesterone, pregn-4-ene-3,20-dione]
X25 particle size [1]: 1.590 μm
X50 particle size [1]: 4.279 μm
X75 particle size [1]: 7.442 μm
mean particle size [1]: 4.975 μm
median particle size [1]: 4.279 μm
mode particle size [1]: 6.453 μm
Progesterone Solubility ([2]; in CAPMUL MCM): 73.4 mg/g
Progesterone Solubility ([2]; in CAPMUL MCM:GELUCIRE 44/14 (6:3)): 57.4 mg/g
Progesterone Solubility ([2]; in CAPMUL MCM:GELUCIRE 44/14 (6:4)): 57.4 mg/g
Progesterone Solubility ([2]; in CAPMUL MCM:GELUCIRE 44/14 (7:3)): 70.5 mg/g
Progesterone Solubility ([2]; in CAPMUL MCM:GELUCIRE 44/14 (9:1)): 86.4 mg/g
Progesterone Solubility ([2]; in CAPMUL MCM:GELUCIRE 44/14 (9:1), listed as progesterone): approximately 86 mg/g
Progesterone Solubility ([2]; in CAPMUL MCM, listed as progesterone): ~73 mg/g
Progesterone Solubility ([2]; in CAPMUL PG8): 95 mg/g
Progesterone Solubility ([2]; in MIGLYOL 812): 27.8 mg/g

C[C@]12CC[C@@H]3c4ccc(O)cc4CC[C@H]3[C@@H]1CC[C@@H]2O [Estradiol, (17β)-estra-1,3,5(10)-triene-3,17-diol]
Results after addition of 7% water ([3]; estradiol 6 mg/g in CAPMUL MCM): without recrystallization
Results after addition of 7% water ([3]; estradiol 6 mg/g in MIGLYOL 812:CAPMUL PG8 (75:25)): Precipitated
Results after addition of 7% water ([3]; estradiol 6 mg/g in Polyethylene Glycol 400): without recrystallization
Results after addition of 7% water ([3]; estradiol 12 mg/g in CAPMUL MCM): Clear
Results after addition of 7% water ([3]; estradiol 12 mg/g in MIGLYOL 812:CAPMUL PG8 (50:50)): Hazy
Results after addition of 7% water ([3]; estradiol 12 mg/g in Polyethylene Glycol 400): clear
Results after addition of 7% water ([3]; estradiol 12 mg/g in TRANSCUTOL:MIGLYOL 812:CAPMUL PG8 (5:47:47)): Hazy
Results after addition of 7% water ([3]; estradiol 12 mg/g in TRANSCUTOL:MIGLYOL 812:CAPMUL PG8 (5:65:28)): Hazy

From patent US10806740B2, “Natural combination hormone replacement formulations and therapies” (TherapeuticsMD, Inc., priority 2012, dated 2020)
